Consider one molecule from patent publication EP4752142A1, “5-HT2A RECEPTOR AGONIST, AND PREPARATION METHOD THEREFOR AND USE THEREOF” (Innovstone Therapeutics Limited, priority 2023, dated 2025).

In test [1] the target is T1, 5-HT2A receptor (Homo sapiens, UniProt P28223). Kind of test: 5-HT2A receptor isotope competition affinity assay. Type of test: binding. The conditions noted are these: competition with [3H]-Ketanserin, 1 hour, room temperature; read-out: 5-HT2A receptor/Ki. Here is the method: A radiolabeled ligand (agonist or antagonist) incubated with receptor protein could form a receptor-ligand complex. An added test compound could compete with the isotopically labeled ligand for the receptor binding, eventually forming a relative steady-state equilibrium. The affinity of the test compound for the receptor was indirectly evaluated by measuring the dissociation of the isotopically labeled ligand from the receptor.
T1 sequence (P28223 whole entry): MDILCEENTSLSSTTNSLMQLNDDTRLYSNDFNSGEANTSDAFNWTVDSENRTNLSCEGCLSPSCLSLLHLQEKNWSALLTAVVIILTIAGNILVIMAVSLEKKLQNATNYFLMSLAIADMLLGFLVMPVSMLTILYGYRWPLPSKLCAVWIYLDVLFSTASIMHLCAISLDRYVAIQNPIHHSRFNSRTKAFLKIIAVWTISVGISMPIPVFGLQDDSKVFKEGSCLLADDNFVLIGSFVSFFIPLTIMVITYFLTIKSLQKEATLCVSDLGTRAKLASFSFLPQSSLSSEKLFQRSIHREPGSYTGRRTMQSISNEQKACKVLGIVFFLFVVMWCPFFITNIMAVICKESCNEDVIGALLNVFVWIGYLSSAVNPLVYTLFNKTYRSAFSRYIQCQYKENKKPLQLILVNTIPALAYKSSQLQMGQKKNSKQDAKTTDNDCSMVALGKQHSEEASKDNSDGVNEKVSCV
A 100x serial gradient dilution of compounds was prepared in DMSO, starting from 1 mM with 4-fold serial dilutions, resulting in 10 concentration points. Using a pipettor, 1 µL of each gradient concentration of the test compound (final concentration starting at 10 µM, 4-fold serial dilutions, 10 concentration points) was transferred to a 96-well assay plate, to each well of which 49 µL of 5-HT2A receptor protein (102 µg/mL, prepared in an assay buffer: 50 mM Tris-HCl, pH 7.4) had been added in advance (final concentration 5 µg/well). This was followed by the addition of 50 µL of isotopically labeled [^3H]-Ketanserin (2 nM, 2× final concentration, prepared in the assay buffer). The plate was sealed and incubated on a shaker at room temperature for 1 hour. The reaction mixture was filtered through a Unifilter-96 GF/C filter plate pre-treated with 0.3% PEI. The filter plate was washed with a precooled (4°C) assay buffer and then dried in an incubator at 50°C. A scintillation liquid was added, and the plate was read using a MicroBeta2 instrument. The percentage inhibition was calculated using the equation: %Inhibition=(CountHigh Signal Control-CountSample)/(CountHigh Signal Control-CountLow Signal Control)*100. A four-parameter logistic fit was used to calculate the IC50 value. High Signal Control: No compound group (the same volume of DMSO substituted). Low Signal Control: Ketanserin group (non-isotopically labeled, 2× final concentration). Table 1: Results of 5-HT2A receptor isotope competition affinity assay, Ki Values

For test [2], the target named is T1, 5-HT2A receptor. The test is described as follows: 5-HT2AR calcium flux activation assay. Format: cell-based. More on the design: expressed in transfected cells; host or cells: HEK293. The conditions noted are these: HEK293 cells stably expressing human 5-HT2A receptor. The protocol: • 1) For cultured cells (HEK293 cells stably expressing human 5-HT2A receptor), they were first washed twice with pre-warmed DPBS, then an appropriate amount of trypsin was added for digestion at 37°C for 1 minute; an appropriate amount of the culture medium was then added to stop digestion, and 1 mL was taken for counting and vitality determination using Vi-CELL™. • 2) Cells were centrifuged at 1000 rpm for 5 minutes. • 3) The supernatant was gently discarded, being careful not to disturb the cell pellet. • 4) Cells were diluted with the culture medium to 1×10^6 cells/mL (20,000 cells/20 µL) and seeded into 384-well poly-lysine coated cell plates. They were cultured at 37°C under 5% CO2 for 16-20 hours.
• 1) Preparation of 250 mM Probenecid solution: According to the kit instructions, 77 mg of probenecid was added to 1 mL of FLIPR buffer salt solution. Prepared fresh for immediate use. • 2) Preparation of Fluo-4 Direct™ (2×, 8 µM) loading buffer: According to the kit instructions, the required amount of Fluo-4 Direct™ was thawed in advance. 10 mL of FLIPR buffer salt solution and 0.2 mL of 250 mM Probenecid solution were added to each vial. It was vortexed in the dark for >5 minutes. Prepared fresh for immediate use.
• 1) Preparation of control and test compound plates: Compounds were gradient diluted to 10 points using Echo, and 750 nL was transferred to the corresponding compound plate. • 2) 30 µL of assay buffer salt solution was added to the corresponding compound plate, which was then centrifuged at 1000 rpm for 1 minute; • 3) The cell plate prepared the day before was taken from the incubator, and 20 µL of 2× Fluo-4 Direct™ buffer was added to each well, making a total volume of 40 µL. • 4) The plate was incubated in a 5% CO2, 37°C incubator for 50 minutes, then left at room temperature for 10 minutes. • 5) The compound plate, the cell plate, and pipette tips were placed into the instrument; • 6) The FLIPR instrument software was run according to the set program, adding 10 µL of the specified concentrations of test compounds and control compounds to the cell plate, and fluorescence signals were read. After reading, data was exported using the "Max-Min", "Read 1 to 90" method in the software. • 7) Data analysis: Agonist Activation% = (RLU−DMSO)/(HC−DMSO)*100 [formula] • RLU: Relative Light Units, read values 1 to 90; • HC: Average fluorescence signal of the highest concentration point of the agonist; • DMSO: Average fluorescence signal of the DMSO group; • 8) Data was fitted using Prism 5.0.
For agonist: EC50 was fitted using "log(agonist) vs. response -- Variable slope". Table 2: 5-HT2AR Calcium Flux Activation Assay

In test [3] the test system is Mice (strain C57BL/6). The test is described as follows: Forced swim test in naive mice 7 days after single administration. Format: in vivo. Particulars: compared to vehicle control group, p<0.05, Figure 2. The protocol:
(§1) • 1. Assay conditions and materials: • 1.1 Animal source: Mice (strain C57BL/6, purchased from Shanghai Lingchang Biotechnology Co., Ltd., 8-9 weeks old, 20-24 grams, male) • 1.2 Conditions: Temperature (20-25°C), relative humidity (40-70%), light cycle (12-hour light cycle (7:00-19:00)), free access to food and water • 1.3 Marking: Animals were marked on the tail. • 2. Assay procedure:
• A) Adaptation: Starting from the second day after the animals arrived, they were conciliated by stroking and acclimated for seven consecutive days to reduce their stress response. • B) Behavioral test (FST test): Compound and Psilocybin groups (15 animals per group) continued to be housed for 7 days after dosing. On day 7, the Ketamine group (15 animals per group) was dosed 30 minutes before being placed, together with the compound and Psilocybin groups, into forced swim observation chambers for 6 minutes. Immobility time during the last 4 minutes was calculated. • C) Assay test indicator: Immobility time of animals during 2-6 minutes of the forced swim test.

Test [4] concerns Mice (strain C57BL/6). The test is described as follows: Head-twitch response test in mice. Format: in vivo. Particulars: dose 30 mpk; reflects hallucinogenic effect; Figure 1. The protocol:
as §1
• A) Adaptation: Starting from the second day after the animals arrived, they were conciliated by stroking and acclimated for seven consecutive days to reduce their stress response. • B) Grouping: One hour before the assay test, animals were placed in the testing room for adaptation. On the test day, animals were randomly grouped according to body weight. Each group contained 12 animals. • C) Assay Dosing: Animal body weight was measured, and compounds were administered according to the group, with a dosing volume of 10 mL/kg for all. • D) Testing: After dosing, animals were placed in transparent observation chambers, and head-twitch behaviors were recorded over 60 minutes. • E) Assay test indicator: Total number of head-twitches within 60 minutes after dosing.

One may read the EC50 as the concentration at which the effect is half-maximal. The Emax is the size of the effect at its maximum, as opposed to the concentration needed. On to `Oc1cccc2[nH]cc(C3CCN(CCCn4nccn4)C3)c12` (centres unmarked) [Compound 180, 3-(1-(3-(2H-1,2,3-triazol-2-yl)propyl)pyrrolidin-3-yl)-1H-indol-4-ol], for which the Ki on 5-HT2A receptor [1] was less than 100 nM. The EC50 on 5-HT2A receptor [2] (FLIPR, Fluo-4, read-out: EC50) was determined as 9.95 nM. On 5-HT2A receptor [2] (Max Dose 100000 nM), the Emax turned out to be 59.3%. Moreover, in the test with Mice (strain C57BL/6) [3], the “Immobility time of animals during 2-6 minutes of the forced swim test” value is on record as “significantly reduced immobility time”. Moreover, the “Total number of head-twitches within 60 minutes after dosing” value with Mice (strain C57BL/6) [4] was “did not cause significant head-twitch behavior”.
